From the NIST ThermoML archive (doi:10.1016/j.tca.2013.08.031)
Numbers after ± are expanded uncertainties.

Experiment: molar heat capacity at constant volume
Conditions: Fluid (supercritical or subcritical phases), Vacuum adiabatic calorimetry

CCC(C)O (stereo not given) [butan-2-ol]
Conditions	molar heat capacity at constant volume [J/K/mol]
527.47 K, Mass density=142.27 kg/m3	538.57 ± 5.6
527.66 K, Mass density=142.27 kg/m3	541.75 ± 6.4
527.84 K, Mass density=142.27 kg/m3	547.68 ± 6.2
527.89 K, Mass density=142.27 kg/m3	524.19 ± 5.9
527.91 K, Mass density=142.27 kg/m3	561.92 ± 6.2
527.93 K, Mass density=142.27 kg/m3	439.91 ± 5.1
527.95 K, Mass density=142.27 kg/m3	388.84 ± 4.7
527.97 K, Mass density=142.27 kg/m3	388.92 ± 4.7
527.99 K, Mass density=142.27 kg/m3	375.57 ± 4.6
528.01 K, Mass density=142.27 kg/m3	386.62 ± 4.8
528.02 K, Mass density=142.27 kg/m3	388.84 ± 4.8
528.02 K, Mass density=403.55 kg/m3	319.46 ± 3
528.21 K, Mass density=142.27 kg/m3	337.77 ± 4.7
528.21 K, Mass density=403.55 kg/m3	320.21 ± 3
528.39 K, Mass density=403.55 kg/m3	321.69 ± 3
528.58 K, Mass density=403.55 kg/m3	321.69 ± 3
528.76 K, Mass density=403.55 kg/m3	324.65 ± 3
528.95 K, Mass density=142.27 kg/m3	295.37 ± 3
528.95 K, Mass density=403.55 kg/m3	322.43 ± 3
529.13 K, Mass density=142.27 kg/m3	274.69 ± 2.8
529.13 K, Mass density=403.55 kg/m3	326.14 ± 3
529.31 K, Mass density=142.27 kg/m3	275.36 ± 2.9
529.31 K, Mass density=403.55 kg/m3	306.86 ± 3
529.5 K, Mass density=403.55 kg/m3	232 ± 2.2
529.68 K, Mass density=403.55 kg/m3	229.78 ± 2.2
529.87 K, Mass density=403.55 kg/m3	227.55 ± 2.2
530.05 K, Mass density=142.27 kg/m3	274.1 ± 2.7
530.23 K, Mass density=142.27 kg/m3	282.55 ± 2.8
530.23 K, Mass density=403.55 kg/m3	227.55 ± 2.2
530.42 K, Mass density=142.27 kg/m3	282.33 ± 2.8
530.42 K, Mass density=403.55 kg/m3	228.29 ± 2.2
530.6 K, Mass density=403.55 kg/m3	232 ± 2.2
530.79 K, Mass density=184.89 kg/m3	471.41 ± 4.8
530.79 K, Mass density=403.55 kg/m3	229.78 ± 2.2
530.97 K, Mass density=184.89 kg/m3	466.37 ± 4.7
530.97 K, Mass density=403.55 kg/m3	232 ± 2.2
531.15 K, Mass density=184.89 kg/m3	474.16 ± 4.8
531.15 K, Mass density=347.06 kg/m3	363.2 ± 3.7
531.15 K, Mass density=403.55 kg/m3	229.78 ± 2.2
531.34 K, Mass density=184.89 kg/m3	489.72 ± 5
531.34 K, Mass density=347.06 kg/m3	356.52 ± 3.7
531.34 K, Mass density=403.55 kg/m3	233.48 ± 2.2
531.52 K, Mass density=184.89 kg/m3	492.32 ± 5
531.52 K, Mass density=347.06 kg/m3	358.01 ± 3.7
531.52 K, Mass density=403.55 kg/m3	233.48 ± 2.2
531.7 K, Mass density=184.89 kg/m3	488.16 ± 4.9
531.7 K, Mass density=284.93 kg/m3	365.79 ± 3.7
531.7 K, Mass density=301.19 kg/m3	380.99 ± 3.7
531.7 K, Mass density=347.06 kg/m3	360.23 ± 3.7
531.7 K, Mass density=403.55 kg/m3	237.19 ± 2.2
531.89 K, Mass density=184.89 kg/m3	479.34 ± 4.8
531.89 K, Mass density=284.93 kg/m3	377.35 ± 3.9
531.89 K, Mass density=301.19 kg/m3	380.99 ± 3.7
531.89 K, Mass density=347.06 kg/m3	364.68 ± 3.7
531.89 K, Mass density=403.55 kg/m3	239.41 ± 2.2
532.07 K, Mass density=184.89 kg/m3	478.97 ± 4.8
532.07 K, Mass density=245.67 kg/m3	434.57 ± 4.4
532.07 K, Mass density=284.93 kg/m3	387.43 ± 3.9
532.07 K, Mass density=347.06 kg/m3	363.94 ± 3.7
532.07 K, Mass density=403.55 kg/m3	238.67 ± 2.2
532.26 K, Mass density=184.89 kg/m3	490.54 ± 5
532.26 K, Mass density=245.67 kg/m3	439.02 ± 4.4
532.26 K, Mass density=286.65 kg/m3	404.56 ± 4.1
532.26 K, Mass density=301.19 kg/m3	388.4 ± 3.7
532.26 K, Mass density=347.06 kg/m3	364.68 ± 3.7
532.26 K, Mass density=403.55 kg/m3	236.45 ± 2.2
532.44 K, Mass density=245.67 kg/m3	433.61 ± 4.4
532.44 K, Mass density=286.65 kg/m3	410.63 ± 4.2
532.44 K, Mass density=301.19 kg/m3	386.17 ± 3.7
532.44 K, Mass density=347.06 kg/m3	361.71 ± 3.7
532.62 K, Mass density=184.89 kg/m3	485.64 ± 5
532.62 K, Mass density=198.25 kg/m3	477.94 ± 4.8
532.62 K, Mass density=245.67 kg/m3	439.84 ± 4.4
532.62 K, Mass density=286.65 kg/m3	417.75 ± 4.2
532.62 K, Mass density=301.19 kg/m3	388.4 ± 3.7
532.62 K, Mass density=347.06 kg/m3	361.71 ± 3.7
532.62 K, Mass density=403.55 kg/m3	232 ± 2.2
532.81 K, Mass density=184.89 kg/m3	501.51 ± 5.1
532.81 K, Mass density=198.25 kg/m3	476.53 ± 4.8
532.81 K, Mass density=245.67 kg/m3	441.76 ± 4.4
532.81 K, Mass density=286.65 kg/m3	423.83 ± 4.3
532.81 K, Mass density=301.19 kg/m3	385.43 ± 3.7
532.81 K, Mass density=347.06 kg/m3	364.68 ± 3.7
532.81 K, Mass density=403.55 kg/m3	231.26 ± 2.2
532.81 K, Mass density=474.07 kg/m3	191.23 ± 2.2
532.99 K, Mass density=184.89 kg/m3	501.8 ± 5.6
532.99 K, Mass density=198.25 kg/m3	476.23 ± 4.8
532.99 K, Mass density=245.67 kg/m3	435.17 ± 4.4
532.99 K, Mass density=286.65 kg/m3	421.6 ± 4.2
532.99 K, Mass density=301.19 kg/m3	390.62 ± 3.7
532.99 K, Mass density=347.06 kg/m3	370.61 ± 3.7
532.99 K, Mass density=474.07 kg/m3	191.23 ± 2.2
533.17 K, Mass density=184.89 kg/m3	502.32 ± 5.6
533.17 K, Mass density=198.25 kg/m3	482.38 ± 4.9
533.17 K, Mass density=245.67 kg/m3	443.91 ± 4.4
533.17 K, Mass density=284.93 kg/m3	404.04 ± 4.1
533.17 K, Mass density=286.65 kg/m3	417.75 ± 4.2
533.17 K, Mass density=301.19 kg/m3	393.59 ± 3.7
533.17 K, Mass density=347.06 kg/m3	373.57 ± 3.7
533.17 K, Mass density=474.07 kg/m3	197.16 ± 2.2
533.36 K, Mass density=184.89 kg/m3	511.07 ± 5.6
533.36 K, Mass density=198.25 kg/m3	490.83 ± 5
533.36 K, Mass density=245.67 kg/m3	447.32 ± 4.5
533.36 K, Mass density=284.93 kg/m3	410.71 ± 4.2
533.36 K, Mass density=286.65 kg/m3	416.27 ± 4.2
